Values quoted from earlier work, collected in patent publication US20080206336A1, “Novel Composition Comprising Rosiglitazone and Another Antidiabetic Agent” (SB PHARMCO PURERTO RICO INC. The Prentice Hall Corp. System …, priority 2003, published 2008).

Settings: acidic conditions of the stomach (around pH 2) versus near neutral conditions of the lower intestine (around pH 7)

pH dependent solubility: marked pH dependent solubility
SMILES: CN(CCOc1ccc(CC2SC(=O)NC2=O)cc1)c1ccccn1 (stereo not shown) [Compound A, 5-[4-[2-(N-methyl-N-(2 pyridyl)amino)ethoxy]benzyl]thiazolidine-2,4-dione]
